Data as given in patent publication US20230337677A1, “ARYL AND PYRIDYL AMIDE PESTICIDES AND COMPOSITIONS THEREOF” (University of Florida Research Foundation, Incorporated, priority 2019, published 2023).
Read-outs that look alike come from different tables or passages of the source.

Columns and labels:
[1] = tested on: Aedes aegypti mosquitoes, insecticide-susceptible Orlando strain; format: in vivo; details: for 1h % repellency: Screened at μg/cm^2; for 1 h Repellency EC50, μg/cm^2: (OR); for 1 h % Repellency, 100 μg/cm^2: screened at 100 μg/cm^2, strain not given
Procedure, shortened: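 Sixteen female mosquitoes per glass tube facing netting-shielded filter paper treated with acetone solutions (30-0.01 μg/ml; screen at 100 μg/cm^2), no contact. Proportion on treated side scored up to 60 min, then flight-out checked 30 min; mortality after 24 hr constant exposure.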

[2] = tested on: Aedes aegypti mosquitoes, insecticide-susceptible Orlando strain; details: for 24h % mortality: Screened at μg/cm^2
[3] = Mammalian toxicity, oral gavage; format: in vivo; details: ICR, in vivo; Table 3A; oral gavage; preliminary mouse screening
Protocol: (§1) Mice ([…] strain ICR, body weight between 20 and 26 g, 35 days old+/−4 days), were force fed with compounds solubilized in olive oil to a volume of 10 μL per gram of mouse via 1 mL disposable syringes attached to 22 gauge metal canulas directly in the stomach following the Institutional Animal Care and Use Committee (IACUC) standard procedure. One hour after gavage, mice were returned to food and water access ad libitum. Dose tested ranged from 60 up to 600 mg/kg of mice, following the method recommended by the US EPA to reduce the number of mice used to determine the LD50 doses. Mice were monitored after drug administration during the first hour, and then every 4 hours up to 24 hours. The surviving mice were humanely sacrificed. Any mice displaying a high state of pain/distress would also be considered as not surviving the treatment and were sacrificed before the end of the investigation. The […] was determined using the AOT425StatPgm software; the study was registered and approved by IACUC under number 201810416.

[4] = Table 3B; Hammett substitution constant based on the ionization of benzoic acids; cited from earlier work
[5] = tested on: Anopheles gambiae G3 sensitive strain; experiment: Topical toxicity (24 hour mortality), An. gambiae G3; format: in vivo
Procedure, shortened: (§2)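 Females aged 3–6 days received 200 nL of compound in ethanol topically on the thorax, 10 per concentration per replicate, and were kept at 28° C with sugar water.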

[6] = tested on: Aedes aegypti strain Orlando (sensitive); experiment: Topical toxicity (24 hour mortality), Ae. aegypti Orlando; format: in vivo
Procedure, shortened: as §2

[7] = tested on: Anopheles gambiae Akron kdr (Akdr) strain, resistant to pyrethroids; experiment: Topical toxicity (24 hour mortality), An. gambiae Akdr; format: in vivo
Procedure, shortened: as §2

Mice (inbred strain ICR) = experiment: Mammalian toxicity, oral gavage; format: in vivo; details: Table 5; preliminary mouse screening
Protocol: as §1

[8] = tested on: Aedes aegypti strain Puerto Rico (PR, resistant to permethrin); experiment: Topical toxicity (24 hour mortality), Ae. aegypti Puerto Rico; format: in vivo
Protocol: The Aedes aegypti strains Orlando (sensitive) as well as the Puerto Rico (PR, resistant to permethrin) were used. The Anopheles gambiae (G3 sensitive strain, as well as Akron kdr (Akdr) strain, resistant to pyrethroids were also assessed. The larvae were provided by the USDA, Gainesville Fl, and raised in a pan with tap water maintained at 28° C. Larvae were fed a ground liver and yeast mixture, and pupae were placed in emergence cages. Adults were held at 28° C. and provided with cotton balls soaked in 10% sugar water for rearing and for all bioassays.
Female adults from 3 to 6 days were used for the experiments. The drug was dissolved in ethanol and then applied with a micro-applicator on the thorax, between the legs: 200 nL of drug per female mosquito, with different concentrations of the drug; 10 mosquitos were treated together per concentration per replicate, and put together in a small container with free access to sweet water. Mortality, i.e. no visible movement, was assessed 24 hours after treatment. Every compound was assessed on at least 3 different cohorts of mosquitoes, and the LD50 values and slopes were determined with Probit analysis, corrected with Abbott's formula.

[9] = tested on: Aedes aegypti mosquitoes, pyrethroid-resistant Puerto Rico strain; experiment: Vapor repellency glass tube assay (1 h), resistant strain; format: in vivo; details: with resistance ratio (PR)
[10] = tested on: Aedes aegypti mosquitoes, pyrethroid-resistant Puerto Rico strain; experiment: Vapor toxicity (24 h lethality under constant exposure in glass tubes), resistant strain; details: LC50, with resistance ratio (PR)
[11] = tested on: Aedes aegypti mosquitoes, insecticide-susceptible Orlando strain; experiment: whole plant or invertebrate; details: 24 h, read-out: 24 h % Mortality, 100 μg/cm^2

SMILES: O=C(Nc1c(Cl)cccc1Cl)C(F)(F)C(F)(F)F [compound 53]
- 1h EC50 (μg/cm^2) ([1]; Table 3A): 8.90 μg/cm^2
- 24 h LC50, μg/cm^2 ([2]; Table 3A): 7.60 μg/cm^2
- 24h % mortality ([2]; Table 3A): 100%
- LD50 at 24 h [3]: > 2000 mg/kg

SMILES: O=C(Nc1cc(F)c(F)c(F)c1)C(F)(F)C(F)(F)C(F)(F)F [compound 52]
- 1h EC50 (μg/cm^2) ([1]; Table 3A): 2.92 μg/cm^2
- 1h % repellency ([1]; Table 3A): 68%
- 24 h LC50, μg/cm^2 ([2]; Table 3A): 13.30 μg/cm^2
- 24h % mortality ([2]; Table 3A): 100%
- LD50 at 24 h [3]: > 2000 mg/kg

SMILES: O=C(CCl)Nc1cccc(C(F)(F)F)c1 [compound 4]
- 1h % repellency ([1]; Table 3B): 50%
- 24h % mortality ([2]; Table 3B): 3.13%
- σmeta [4]: 0.52

SMILES: O=C(CCl)Nc1cccc(O)c1 [compound 2]
- 1h % repellency ([1]; Table 3B): 36%
- σmeta [4]: 0.12

SMILES: O=C(CCl)Nc1cccc(F)c1 [compound 3]
- 1h % repellency ([1]; Table 3B): 6%
- σmeta [4]: 0.337

SMILES: O=C(Nc1cc(Cl)nc(Cl)c1)C(F)(C(F)(F)F)C(F)(F)F [compound 55]
- An. gambiae G3 LD50 ([5]; Table 5, topical, 24 h): 5.80 ng/mg
- Ae. aegypti OR LD50 ([6]; Table 5, topical, 24 h): 17.20 ng/mg
- An. gambiae AKDR LD50 ([7]; Table 5, topical, 24 h): 2.70 ng/mg
- Mouse LD50 (Mice (inbred strain ICR)): ~50 ng/mg
- Ae. aegypti LD50 ([8]; Table 5, topical, 24 h, strain not given, line below OR): 7.10 ng/mg

SMILES: C/C=C/C1C(C(=O)OCc2c(F)c(F)c(COC)c(F)c2F)C1(C)C (stereo not drawn) [Metofluthrin, metofluthrin, reference compound]
- 1 h Repellency EC50, μg/cm^2 [1]: 0.3 μg/cm^2
- 1 h Repellency EC50, μg/cm^2 (RR) [9]: 12 μg/cm^2
- 24 h LC50, μg/cm^2 ([2]; 24 h, LC50 (OR)): 0.84 μg/cm^2
- 24 h LC50, μg/cm^2 (RR) [10]: 43 μg/cm^2

SMILES: CC1(C)[C@H](C=C(Cl)Cl)[C@H]1C(=O)OCc1c(F)c(F)cc(F)c1F [Transfluthrin, transfluthrin, reference compound]
- 1 h Repellency EC50, μg/cm^2 [1]: 0.5 μg/cm^2
- 1 h Repellency EC50, μg/cm^2 (RR) [9]: 2.3 μg/cm^2
- 24 h LC50, μg/cm^2 ([2]; 24 h, LC50 (OR)): 0.16 μg/cm^2
- 24 h LC50, μg/cm^2 (RR) [10]: 7.6 μg/cm^2

SMILES: O=C(Nc1cc(F)c(F)c(F)c1)C(F)(F)C(F)(F)C(F)(F)F [MTFI-5-3A, 2,2,3,3,4,4,4-heptafluoro-N-(3,4,5-trifluorophenyl)butanamide]
- 1 h Repellency EC50, μg/cm^2 [1]: 2.9 μg/cm^2
- repellency EC50, compound alone ([1]; alone, FIG. 3 / FIG. 4): 2.9 μg/cm^2
- 1 h % Repellency, 100 μg/cm^2 [1]: 68%
- 1 h Repellency EC50, μg/cm^2 (RR) [9]: 4.5 μg/cm^2
- 24 h LC50, μg/cm^2 ([2]; 24 h, LC50 (OR)): 13 μg/cm^2
- 24 h LC50, μg/cm^2 (RR) [10]: 11 μg/cm^2
- mortality at 100 µg/cm2 [11]: 100%

SMILES: O=C(Nc1c(Cl)cc(C(F)(F)F)cc1Cl)C(F)(F)C(F)(F)F [compound 41]
- 1h EC50 (μg/cm^2) ([1]; Table 3A): 5.30 μg/cm^2
- 1h % repellency ([1]; Table 3A): 66%
- 24 h LC50, μg/cm^2 ([2]; Table 3A): 0.27 μg/cm^2
- 24h % mortality ([2]; Table 3A): 100%
- LD50 at 24 h [3]: 200 mg/kg

SMILES: O=C(Nc1cc(C(F)(F)F)cc(C(F)(F)F)c1)C(F)F [MTFI-4-2B]
- 1 h Repellency EC50, μg/cm^2 [1]: 15 μg/cm^2
- 1 h % Repellency, 100 μg/cm^2 [1]: 100%
- 1 h Repellency EC50, μg/cm^2 (RR) [9]: 24 μg/cm^2
- mortality at 100 µg/cm2 [11]: 88%

SMILES: CC(=O)Nc1ccccc1C(F)(F)F [MTFI-1-4A]
- 1 h Repellency EC50, μg/cm^2 [1]: 26 μg/cm^2
- 1 h % Repellency, 100 μg/cm^2 [1]: 78%
- 1 h Repellency EC50, μg/cm^2 (RR) [9]: 81 μg/cm^2

SMILES: O=C(Nc1cc(Cl)nc(C(F)(F)F)c1)C(F)(F)C(F)(F)OC(F)(F)F [compound 57]
- An. gambiae G3 LD50 ([5]; Table 5, topical, 24 h): 13.70 ng/mg
- Ae. aegypti OR LD50 ([6]; Table 5, topical, 24 h): 14.90 ng/mg
- An. gambiae AKDR LD50 ([7]; Table 5, topical, 24 h): 3.60 ng/mg
- Mouse LD50 (Mice (inbred strain ICR)): >200 ng/mg

SMILES: O=C(Nc1cc(Cl)nc(Cl)c1)C(F)(F)C(F)(F)OC(F)(F)F [compound 54]
- An. gambiae G3 LD50 ([5]; Table 5, topical, 24 h): 6.04 ng/mg
- Ae. aegypti OR LD50 ([6]; Table 5, topical, 24 h): 17.80 ng/mg
- An. gambiae AKDR LD50 ([7]; Table 5, topical, 24 h): 11.00 ng/mg
- Mouse LD50 (Mice (inbred strain ICR)): >2000 ng/mg

SMILES: O=C(Nc1cc(Cl)nc(Cl)c1)C(F)(F)C(F)(F)C(F)(F)F [GMR031]
- An. gambiae G3 LD50 ([5]; topical application, 24 h mortality, female adults, susceptible strain G3): 8.0 ng/mg
- 1 h % Repellency, 100 μg/cm^2 [1]: 34%
- Ae. aegypti OR LD50 ([6]; topical application, 24 h mortality, female adults, susceptible Orlando strain): 34 ng/mg
- 24 h LC50, μg/cm^2 ([2]; 24 h, LC50 (OR)): 25 μg/cm^2
- An. gambiae RR (resistance ratio) ([7]; 24 h LD50 resistant strain (AKDR)/24 h LD50 susceptible strain (G3)): 0.8
- An. gambiae AKDR LD50 ([7]; topical application, 24 h mortality, female adults, pyrethroid-resistant Akdr strain): 6.7 ng/mg
- 24 h LC50, μg/cm^2 (RR) [10]: 22 μg/cm^2
- Ae. aegypti RR (resistance ratio) ([8]; 24 h LD50 resistant strain (PR)/24 h LD50 susceptible strain (OR)): 0.9
- Ae. aegypti PR LD50 ([8]; topical application, 24 h mortality, female adults, permethrin-resistant Puerto Rico strain): 31 ng/mg
- mortality at 100 µg/cm2 [11]: 98%
